Laboratory results: patent US20260274836A1, “NOVEL HEPATOSELECTIVE POLYADENYLATING POLYMERASES INHIBITORS AND THEIR METHOD OF USE” (Baruch S. Blumberg Institute, priority 2022, published 2026)

How the values were obtained:
[1] = test system: 18f-NLuc reporter virus (HM175/18f HAV); experiment: Antiviral activity against human hepatitis A virus, 18f-NLuc reporter virus in Huh-7 cells; assay type: cell-based, Human Hepatitis A Virus (Hepatovirus A); settings: Hepatovirus A, Huh-7, 48 h, Huh-7 cells, 18f-NLuc virus, 48 hrs
Experimental: Assay for Antiviral Activity Against Human Hepatitis A Virus (Hepatovirus A).
(§1) Assays for the anti-HAV activity of the hepatoselective DHQ compounds were carried out in Huh-7 human hepatoma cells using the 18f-NLuc reporter virus, which expresses nanoluciferase (NLuc) from sequence inserted into the polyprotein coding region of the HM175/18f HAV genome between the VP1pX and 2B coding sequences (Yamane et al., 2019). The method was modified minimally from that described by Misumi et al. for iminosugar compounds (Misumi et al., 2021). Cells (approximately […]) were plated in wells of a 96-well plate with Dulbecco's modified Eagle medium (DMEM) and 10% fetal bovine serum. The cells were inoculated 24 hrs later with 18f-NLuc virus (approximately 10^6-10^7 genome equivalents) in medium containing increasing concentrations of the compounds of interest. The cells were re-incubated for 48 hrs at 37° C. in a 5% CO2 environment, then lysed in 1× passive lysis buffer (Promega) for 15 min at room temperature. Cell lysates were transferred to an opaque white 96-well plate (Corning, 3912) and NLuc assay carried out using the NLuc GLOW Assay kit (Nanolight Technology). Luminescence was measured using a Biotek Synergy II multi-mode plate reader (BioTek Instruments). The percent inhibition of replication was calculated by determining the reduction in NLuc activity from that expressed by infected cells incubated in parallel in the absence of compound, and 50% inhibitory endpoints estimated by fitting the data to a four parameter variable slope logistic curve using Prism 9 for Mac OS software (GraphPad). Cell toxicity of the compounds was assessed using the WST-1 Cell Proliferation Reagent (Sigma-Aldrich) at the end of the treatment period in parallel cultures of uninfected cells, with WST-1 reagent added to cultures for 1 hr prior to harvest and O.D. reading.
as §1, with “Additional exemplary compounds of the present invention are evaluated for anti-HAV activity in accordance with certain assays described hereinabove. As discussed above, assays” for “Assays”, “10^6-107” for “10^6-10^7”

OATP1B3 = target: T1, OATP1B3 (Homo sapiens, UniProt Q9NPD5); experiment: OATP1B3 transporter substrate uptake in OATP1B3-HEK293 cells; assay type: in vitro ADME
T1 construct: expressed in transfected cells; host or cells: HEK293
T1 sequence (Q9NPD5 1-702): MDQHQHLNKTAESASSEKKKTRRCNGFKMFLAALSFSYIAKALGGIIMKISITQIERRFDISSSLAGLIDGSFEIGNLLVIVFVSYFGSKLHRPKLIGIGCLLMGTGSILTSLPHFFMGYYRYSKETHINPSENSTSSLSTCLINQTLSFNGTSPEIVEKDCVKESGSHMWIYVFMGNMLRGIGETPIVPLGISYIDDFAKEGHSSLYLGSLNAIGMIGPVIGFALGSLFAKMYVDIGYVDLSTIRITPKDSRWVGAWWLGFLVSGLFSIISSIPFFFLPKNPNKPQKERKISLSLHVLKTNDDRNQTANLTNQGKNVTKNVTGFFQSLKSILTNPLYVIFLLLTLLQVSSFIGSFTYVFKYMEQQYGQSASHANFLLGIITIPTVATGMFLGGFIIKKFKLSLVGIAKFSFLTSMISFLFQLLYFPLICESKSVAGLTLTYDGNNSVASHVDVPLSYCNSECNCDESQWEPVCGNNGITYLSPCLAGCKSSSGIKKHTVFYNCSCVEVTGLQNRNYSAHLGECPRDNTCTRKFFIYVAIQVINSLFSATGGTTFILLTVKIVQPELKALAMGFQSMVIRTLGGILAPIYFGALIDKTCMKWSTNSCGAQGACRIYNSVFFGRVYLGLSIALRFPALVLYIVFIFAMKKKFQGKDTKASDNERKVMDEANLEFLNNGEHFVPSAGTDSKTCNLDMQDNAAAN
Experimental: Protocol for identification of compounds that are substrates of transporters OATPIBI and OATPIB3. Transfected HEK293 and vector control HEK293 cells were cultured in 24-well poly-D-lysine or collagen-coated tissue culture plates ([…]) for 2 and 10 minutes respectively in transport buffer (HBSSg, pH 7.4, pre-warmed to 37° C.). At a defined time point, the uptake experiments were stopped by removing dosing solution followed by two washes of ice-cold HBSSg buffer. The cells were lysed for 2 minutes with 75% ACN containing an appropriate internal standard (when available). Lysis buffer were chilled to −20° C., and the plate was kept on ice during lysis. The cell lysate was transferred into a 96-well plate for sample analysis with LC-MS/MS analysis to determine concentration of test compound in cell lysate. The uptake of test compounds was normalized by total cell protein using the BCA Protein Assay Kit following the manufacturer's protocol. The inhibitor Rifamycin SV was used to block OATP1B1 and OATP1B3 transporter activity in order to determine uptake ratios.

**Q.** Which results are given for `COc1cc2c(cc1OCCCCCCC(=O)O)C[C@@H](C(C)C)n1cc(C(=O)O)c(=O)cc1-2` [Example 6, (S)-9-((6-carboxyhexyl)oxy)-6-isopropyl-10-methoxy-2-oxo-6,7-dihydro-2H-pyrido[2,1-a]isoquinoline-3-carboxylic acid]?
**A.** EC50 [1]: 278 nM; Uptake Ratio (−/+Inhibitor) (OATP1B3; OATP1B3-HEK293 cells, test concentration 1 μM, inhibitor Rifamycin SV): 11.57; Uptake Ratio (Transporter(−Inhibitor)/Mock(−Inhibitor)) (OATP1B3; OATP1B3-HEK293 vs mock HEK293, test concentration 1 μM): 24.80
